# Source: US20110021556A1, “PYRROLIDINYL DERIVATIVES AND USES THEREOF” (Hoffman-La Roche, Inc., priority 2008, published 2011)
# Counter-ions that a name gives are not always drawn.
row,melting point [°C],Compound
1,169.9 to 171.1,c1ccc(CC2(c3ccc4[nH]ccc4c3)CCNC2)nc1 (centres unmarked)
2,120.9 to 123,c1ccc(CC2(c3ccc4sccc4c3)CCNC2)cc1 (centres unmarked) (as salt: hydrochloride)
